Test results taken from patent US20250197372A1 (priority 2020, published 2025).

Assays:
[1] = target: rat sucrase (partially purified alpha-glucosidase from intestinal rat powder) (Rattus norvegicus, UniProt P23739); experiment: Intestinal alpha-glucosidase assay, sucrose substrate (Glucose GO Kit); assay type: biochemical
Experimental: Intestinal alpha-glucosidases (rat maltase and sucrase): Intestinal alpha-glucosidases act upon 1,4-alpha-glucoside bonds, breaking down disaccharides to glucose. To perform this assay, partially purified alpha-glucosidase from intestinal rat powder was incubated for 60 minutes at 37° C. with multiple dilutions of test compounds. Maltose or Sucrose respectively was then introduced as substrate to the mixture and incubated for 30 minutes at 37° C. The reaction was stopped by a 5-minute incubation at 90° C. and the resultant glucose production is detected using Sigma's Glucose GO Kit. Percent inhibition was then plotted as a function of concentration for each test compound. The IC50 was determined using a 4-PL curve fit and serves as the measure of relative inhibition of each test compound (see Table 3).

[2] = target: T1, recombinant human GBA (beta-glucocerebrosidase) (Homo sapiens, UniProt P04062); experiment: Beta-glucocerebrosidase (GBA, glucosylceramidase) assay (4-methylumbelliferyl-beta-D-pyranoside substrate, fluorescence); assay type: biochemical
T1 sequence (P04062 40-536): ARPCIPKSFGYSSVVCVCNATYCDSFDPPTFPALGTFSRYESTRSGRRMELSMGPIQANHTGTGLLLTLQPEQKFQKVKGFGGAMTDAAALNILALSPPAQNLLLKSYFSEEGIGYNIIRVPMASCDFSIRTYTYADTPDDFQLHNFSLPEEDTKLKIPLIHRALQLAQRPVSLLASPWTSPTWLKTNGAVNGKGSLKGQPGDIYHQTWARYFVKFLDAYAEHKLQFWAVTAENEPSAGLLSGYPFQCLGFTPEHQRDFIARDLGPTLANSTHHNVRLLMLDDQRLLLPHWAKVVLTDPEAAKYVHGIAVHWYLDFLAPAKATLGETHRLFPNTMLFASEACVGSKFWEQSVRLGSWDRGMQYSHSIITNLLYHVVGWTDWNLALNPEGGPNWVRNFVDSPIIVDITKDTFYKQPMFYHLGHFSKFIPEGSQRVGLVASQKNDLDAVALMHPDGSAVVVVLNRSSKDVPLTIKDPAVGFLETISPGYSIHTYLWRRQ
Experimental: Beta-glucocerebrosidase (GBA, also referred to glucosylceramidase): To analyze inhibitory effects of a test compound, commercially available recombinant human GBA was incubated with multiple dilutions of test compound for 60 minutes at 37° C. 4-methylumbelliferyl-beta-D-pyranoside was then introduced to the mixture as substrate. Following incubation for 60 minutes at 37° C., 1,4-methyllumbelliferone was generated, and the reaction was stopped with the stop solution (0.5 M glycine; 0.3 M NaOH, pH 10). 1,4-methyllumbelliferone was detected by fluorescence (excitation at 365 nm, emission at 440 nm). Relative fluorescence compared to untreated enzymatic activity and test compound concentration is then plotted as a function of percent inhibition. The IC50 was determined using a 4-PL curve fit as the measure of relative inhibitory activity of each test compound (see Table 3).

rat sucrase (partially purified alpha-glucosidase from intestinal rat powder), sequence (P23739 whole entry): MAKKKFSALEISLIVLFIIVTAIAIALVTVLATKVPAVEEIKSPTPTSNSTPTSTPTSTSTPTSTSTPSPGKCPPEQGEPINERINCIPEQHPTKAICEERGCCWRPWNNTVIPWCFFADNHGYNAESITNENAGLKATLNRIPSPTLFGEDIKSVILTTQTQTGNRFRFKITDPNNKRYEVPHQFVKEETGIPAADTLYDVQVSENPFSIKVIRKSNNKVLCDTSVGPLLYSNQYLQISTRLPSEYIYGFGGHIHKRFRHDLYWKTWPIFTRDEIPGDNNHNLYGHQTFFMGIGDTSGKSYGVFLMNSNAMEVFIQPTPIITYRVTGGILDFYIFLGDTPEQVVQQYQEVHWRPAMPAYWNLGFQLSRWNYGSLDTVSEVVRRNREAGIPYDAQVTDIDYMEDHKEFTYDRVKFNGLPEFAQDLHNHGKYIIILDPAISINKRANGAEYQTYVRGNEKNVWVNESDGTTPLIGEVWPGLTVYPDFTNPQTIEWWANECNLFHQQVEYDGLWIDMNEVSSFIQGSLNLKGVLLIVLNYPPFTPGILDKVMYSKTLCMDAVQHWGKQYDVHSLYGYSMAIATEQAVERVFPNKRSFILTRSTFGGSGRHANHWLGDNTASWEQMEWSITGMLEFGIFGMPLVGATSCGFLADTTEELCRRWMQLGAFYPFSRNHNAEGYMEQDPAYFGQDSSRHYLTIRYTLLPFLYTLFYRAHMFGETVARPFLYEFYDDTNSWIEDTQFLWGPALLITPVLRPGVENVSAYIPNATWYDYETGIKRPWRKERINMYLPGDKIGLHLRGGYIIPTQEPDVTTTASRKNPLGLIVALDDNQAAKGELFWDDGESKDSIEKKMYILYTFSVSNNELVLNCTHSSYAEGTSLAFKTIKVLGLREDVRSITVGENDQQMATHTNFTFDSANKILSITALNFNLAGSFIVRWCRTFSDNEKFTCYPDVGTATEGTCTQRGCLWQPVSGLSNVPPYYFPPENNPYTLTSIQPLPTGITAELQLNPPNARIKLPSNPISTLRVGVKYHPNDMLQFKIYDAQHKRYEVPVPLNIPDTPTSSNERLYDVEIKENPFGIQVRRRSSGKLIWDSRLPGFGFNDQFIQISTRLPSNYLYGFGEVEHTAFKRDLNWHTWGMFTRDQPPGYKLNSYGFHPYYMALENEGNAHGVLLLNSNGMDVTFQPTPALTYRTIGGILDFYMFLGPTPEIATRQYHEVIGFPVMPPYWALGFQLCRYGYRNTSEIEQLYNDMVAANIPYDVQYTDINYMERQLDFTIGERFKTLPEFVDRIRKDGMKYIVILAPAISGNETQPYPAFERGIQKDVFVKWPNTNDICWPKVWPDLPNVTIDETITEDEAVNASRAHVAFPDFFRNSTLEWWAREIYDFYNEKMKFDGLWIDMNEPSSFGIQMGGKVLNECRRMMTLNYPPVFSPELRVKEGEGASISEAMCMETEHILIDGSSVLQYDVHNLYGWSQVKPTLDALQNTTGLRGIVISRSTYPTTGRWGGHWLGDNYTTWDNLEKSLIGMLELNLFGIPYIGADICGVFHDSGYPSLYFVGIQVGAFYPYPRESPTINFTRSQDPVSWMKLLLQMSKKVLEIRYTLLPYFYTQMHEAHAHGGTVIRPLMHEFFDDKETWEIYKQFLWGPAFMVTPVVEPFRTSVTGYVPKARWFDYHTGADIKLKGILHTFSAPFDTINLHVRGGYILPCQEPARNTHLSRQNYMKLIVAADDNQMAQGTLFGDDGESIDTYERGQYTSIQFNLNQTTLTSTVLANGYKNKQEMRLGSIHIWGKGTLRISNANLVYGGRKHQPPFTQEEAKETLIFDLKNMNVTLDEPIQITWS

Compound | IC50 [1] [nM] | IC50 [2] [nM]
O=[N+]([O-])c1cc(N2C3CCC2COC3)ccc1NCc1ccc(CN2CC(O)C(O)C(O)C2CO)cc1 (stereo in doubt) [Compound 1018, (2S,3S,4S,5R)-2-(hydroxymethyl)-1-({4-[({2-nitro-4-[(1R,5S)-3-oxa-8-azabicyclo[3.2.1]octan-8-yl]phenyl}amino)methyl]phenyl}methyl) piperidine-3,4,5-triol] | < 1 | > 100000
COc1cc(-c2cnccn2)ccc1NCCCCCCN1C[C@H](O)[C@@H](O)[C@H](O)[C@H]1CO [Compound 1199, (2R,3R,4R,5S)-2-(hydroxymethyl)-1-(6-{[2-methoxy-4-(pyrazin-2-yl)phenyl]amino}hexyl)piperidine-3,4,5-triol] | 16 | 3960
O=[N+]([O-])c1cc(CCO)ccc1NCCCCCCN1C[C@H](O)[C@@H](O)[C@H](O)[C@H]1CO [Compound 1292, (2R,3R,4R,5S)-1-(6-{[4-(2-hydroxyethyl)-2-nitrophenyl]amino}hexyl)-2-(hydroxymethyl)piperidine-3,4,5-triol] | 40 | 1600
[N-]=[N+]=Nc1ccc(NCc2ccc(-c3ccc(CN4C[C@H](O)[C@@H](O)[C@H](O)[C@H]4CO)cc3)cc2)c([N+](=O)[O-])c1 [Compound 1166, (2R,3R,4R,5S)-1-[(4′-{[(4-azido-2-nitrophenyl)amino]methyl}-[1,1′-biphenyl]-4-yl)methyl]-2-(hydroxymethyl)piperidine-3,4,5-triol] | 156 | 5630
[N-]=[N+]=Nc1ccc(NCc2cccc(CN3C[C@H](O)[C@@H](O)[C@H](O)[C@H]3CO)c2)c([N+](=O)[O-])c1 [Compound 1169, (2R,3R,4R,5S)-1-[(3-{[(4-azido-2-nitrophenyl)amino]methyl}phenyl)methyl]-2-(hydroxymethyl)piperidine-3,4,5-triol] | < 1 | 83500
[N-]=[N+]=Nc1ccc(NCCNc2cc(Cl)cc(CCN3C[C@H](O)[C@@H](O)[C@H](O)[C@H]3CO)c2)c([N+](=O)[O-])c1 [Compound 1143, (2R,3R,4R,5S)-1-{2-[3-({2-[(4-azido-2-nitrophenyl)amino]ethyl}amino)-5-chlorophenyl]ethyl}-2-(hydroxymethyl)piperidine-3,4,5-triol] | 2010 | 404
C[C@@H]1CN(c2ccc(NCc3ccc(CN4C[C@H](O)[C@@H](O)[C@H](O)[C@H]4CO)cc3)c([N+](=O)[O-])c2)C[C@H](C)O1 [Compound 1014] | 15 | > 100000
[N-]=[N+]=Nc1ccc(NCCc2ccc(CCN3C[C@H](O)[C@@H](O)[C@H](O)[C@H]3CO)cc2)c([N+](=O)[O-])c1 [Compound 1200, (2R,3R,4R,5S)-1-[2-(4-{2-[(4-azido-2-nitrophenyl)amino]ethyl}phenyl)ethyl]-2-(hydroxymethyl)piperidine-3,4,5-triol] | 746 | 1450
[N-]=[N+]=Nc1ccc(NCCn2cc(CCN3C[C@H](O)[C@@H](O)[C@H](O)[C@H]3CO)c3ccccc32)c([N+](=O)[O-])c1 [Compound 1177, (2R,3R,4R,5S)-1-[2-(1-{2-[(4-azido-2-nitrophenyl)amino]ethyl}-1H-indol-3-yl)ethyl]-2-(hydroxymethyl)piperidine-3,4,5-triol] | 883 | 3320
COc1cc(NCCCCCCN2C[C@H](O)[C@@H](O)[C@H](O)[C@H]2CO)cc(C2CCCO2)c1 (stereo partly drawn) [Compound 1146, (2R,3R,4R,5S)-2-(hydroxymethyl)-1-(6-{[3-methoxy-5-(oxolan-2-yl)phenyl]amino}hexyl)piperidine-3,4,5-triol] | 92 | 2170
OC[C@@H]1[C@@H](O)[C@H](O)[C@@H](O)CN1Cc1ccc(CNc2ccc(N3CCOCC3)cc2)cc1 [Compound 1068] | 141 | > 100000
Cc1cc(-c2ccco2)ccc1NCc1ccc(CN2C[C@H](O)[C@@H](O)[C@H](O)[C@H]2CO)cc1 [Compound 1324, (2R,3R,4R,5S)-1-{[4-({[4-(furan-2-yl)-2-methylphenyl]amino}methyl)phenyl]methyl}-2-(hydroxymethyl)piperidine-3,4,5-triol] | < 1 | 33700
COc1cc(-c2ncco2)ccc1NCCCCCCN1C[C@H](O)[C@@H](O)[C@H](O)[C@H]1CO [Compound 1207, (2R,3R,4R,5S)-2-(hydroxymethyl)-1-(6-{[2-methoxy-4-(1,3-oxazol-2-yl)phenyl]amino}hexyl)piperidine-3,4,5-triol] | 71 | 1680
O=Cc1cc(NCCCCCCN2C[C@H](O)[C@@H](O)[C@H](O)[C@H]2CO)cc(-c2ncccn2)c1 [Compound 1129, 3-(pyrimidin-2-yl)-5-({6-[(2R,3R,4R,5S)-3,4,5-trihydroxy-2-(hydroxymethyl)piperidin-1-yl]hexyl}amino)benzaldehyde] | 56 | 2730
[N-]=[N+]=Nc1ccc(NCCc2nccc(CCN3C[C@H](O)[C@@H](O)[C@H](O)[C@H]3CO)n2)c([N+](=O)[O-])c1 [Compound 1188, (2R,3R,4R,5S)-1-[2-(2-{2-[(4-azido-2-nitrophenyl)amino]ethyl}pyrimidin-4-yl)ethyl]-2-(hydroxymethyl)piperidine-3,4,5-triol] | 783 | 9050
Cc1cc(NCc2cccc(CN3C[C@H](O)[C@@H](O)[C@H](O)[C@H]3CO)c2)cc(-c2ncccn2)c1 [Compound 1035, (2R,3R,4R,5S)-2-(hydroxymethyl)-1-{[3-({[3-methyl-5-(pyrimidin-2-yl)phenyl]amino}methyl)phenyl]methyl}piperidine-3,4,5-triol] | 51 | > 100000
COc1cc(NCCCCCCN2C[C@H](O)[C@@H](O)[C@H](O)[C@H]2CO)cc(C2CCCCC2)c1 [Compound 1148, (2R,3R,4R,5S)-1-{6-[(3-cyclohexyl-5-methoxyphenyl)amino]hexyl}-2-(hydroxymethyl)piperidine-3,4,5-triol] | 1 | 2
COc1cc(NCCc2ccc(CCN3C[C@H](O)[C@@H](O)[C@H](O)[C@H]3CO)cc2)cc(-c2ccco2)c1 [Compound 1153, (2R,3R,4R,5S)-1-{2-[4-(2-{[3-(furan-2-yl)-5-methoxy-phenyl]amino}ethyl)phenyl]ethyl}-2-(hydroxymethyl)piperidine-3,4,5-triol] | 2500 | 1090
OC[C@@H]1[C@@H](O)[C@H](O)[C@@H](O)CN1CCCCCCNc1ccc(-c2cccnn2)cc1Cl [Compound 1202, (2R,3R,4R,5S)-1-(6-{[2-chloro-4-(pyridazin-3-yl)phenyl]amino}hexyl)-2-(hydroxymethyl)piperidine-3,4,5-triol] | < 1 | 3010
COc1cc(NCCc2ccc(CCN3C[C@H](O)[C@@H](O)[C@H](O)[C@H]3CO)cc2)cc(C2=CCOCC2)c1 [Compound 1154, (2R,3R,4R,5S)-1-{2-[4-(2-{[3-(3,6-dihydro-2H-pyran-4-yl)-5-methoxyphenyl]amino}ethyl)phenyl]ethyl}-2-(hydroxymethyl)piperidine-3,4,5-triol] | 2880 | 1700
COc1cc(CC2CCOC2)cc(NCCCCCCN2C[C@H](O)[C@@H](O)[C@H](O)[C@H]2CO)c1 (stereo partly drawn) [Compound 1141, (2R,3R,4R,5S)-2-(hydroxymethyl)-1-[6-({3-methoxy-5-[(oxolan-3-yl)methyl]phenyl}amino)hexyl]piperidine-3,4,5-triol] | 696 | 8060
